Test results as given in patent publication US20220119354A1, “DIAMINO-SUBSTITUTED PYRIDINES AND PYRIMIDINES AS HERBICIDES” (FMC Corporation, priority 2019, published 2022).

Experiments:
Type in all cases: in vivo
[1] = test system: barnyardgrass (Echinochloa crus-galli); assay: Test A preemergence, barnyardgrass; conditions: 0 to 100 scale
Summary of the method: (§1)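 Steps: plant seeds in loam/sand; spray soil (pre) or seedlings at 1–2 leaves, 2–10 cm (post) with compound in solvent plus surfactant; keep in greenhouse ~10 d; score injury visually against untreated controls, 0–100.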

[2] = test system: kochia (Kochia scoparia); assay: Test A preemergence, kochia; conditions: 0 to 100 scale
Summary of the method: as §1

[3] = test system: ragweed (common ragweed, Ambrosia elatior); assay: Test A preemergence, ragweed; conditions: 0 to 100 scale
Summary of the method: as §1

[4] = test system: ryegrass, Italian (Lolium multiflorum); assay: Test A preemergence, Italian ryegrass; conditions: 0 to 100 scale
Summary of the method: as §1

[5] = test system: foxtail, giant (Setaria faberii); assay: Test A preemergence, giant foxtail; conditions: 0 to 100 scale
Summary of the method: as §1

[6] = test system: pigweed (Amaranthus retroflexus); assay: Test A preemergence, pigweed; conditions: 0 to 100 scale
Summary of the method: as §1

[7] = test system: barnyardgrass (Echinochloa crus-galli); assay: Test A postemergence, barnyardgrass; conditions: 0 to 100 scale
Summary of the method: as §1

[8] = test system: kochia (Kochia scoparia); assay: Test A postemergence, kochia; conditions: 0 to 100 scale
Summary of the method: as §1

[9] = test system: ragweed (common ragweed, Ambrosia elatior); assay: Test A postemergence, ragweed; conditions: 0 to 100 scale
Summary of the method: as §1

[10] = test system: ryegrass, Italian (Lolium multiflorum); assay: Test A postemergence, Italian ryegrass; conditions: 0 to 100 scale
Summary of the method: as §1

[11] = test system: foxtail, giant (Setaria faberii); assay: Test A postemergence, giant foxtail; conditions: 0 to 100 scale
Summary of the method: as §1

[12] = test system: pigweed (Amaranthus retroflexus); assay: Test A postemergence, pigweed; conditions: 0 to 100 scale
Summary of the method: as §1

[13] = test system: wheat (Triticum aestivum); assay: Test A postemergence, wheat; conditions: 0 to 100 scale
Summary of the method: as §1

[14] = test system: corn (Zea mays); assay: Test A postemergence, corn; conditions: 0 to 100 scale
Summary of the method: as §1

[15] = test system: blackgrass (Alopecurus myosuroides); assay: Test A postemergence, blackgrass; conditions: 0 to 100 scale
Summary of the method: as §1

[16] = test system: galium (catchweed bedstraw, Galium aparine); assay: Test A postemergence, galium; conditions: 0 to 100 scale
Summary of the method: as §1

[17] = test system: rice (Oryza sativa); assay: Test B flooded paddy test, rice; conditions: Flood, 250 g ai/ha, applied to paddy water, 2-leaf stage, visual evaluation after 13 to 15 d
Summary of the method: (§2)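 Each response is a visual 0–100 rating made against untreated controls, where 0 is no effect and 100 is complete control; a dash marks no result. Compound was dosed into 3 cm paddy water over 2-leaf plants, assessed after 13 to 15 d.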

[18] = test system: sedge, umbrella (small-flower umbrella sedge, Cyperus difformis); assay: Test B flooded paddy test, umbrella sedge; conditions: Flood, 250 g ai/ha, applied to paddy water, 2-leaf stage, visual evaluation after 13 to 15 d
Summary of the method: as §2

[19] = test system: ducksalad (Heteranthera limosa); assay: Test B flooded paddy test, ducksalad; conditions: Flood, 250 g ai/ha, applied to paddy water, 2-leaf stage, visual evaluation after 13 to 15 d
Summary of the method: as §2

[20] = test system: barnyardgrass (Echinochloa crus-galli); assay: Test B flooded paddy test, barnyardgrass; conditions: Flood, 250 g ai/ha, applied to paddy water, 2-leaf stage, visual evaluation after 13 to 15 d
Summary of the method: as §2

## Cc1cc(C)cc(OC[C@@H](C)Nc2ncc(C(F)(F)F)c(N)n2)c1 [Compound 25, N2-[(1R)-2-(3,5-dimethylphenoxy)-1-methylethyl]-5-(trifluoromethyl)-2,4-pyrimidinediamine]
[1]; 125 g ai/ha
  Plant response rating, Barnyardgrass: 90
[1]; 500 g ai/ha
  Plant response rating, Barnyardgrass: 100
[2]; 125 g ai/ha
  Plant response rating, Kochia: 20
[2]; 500 g ai/ha
  Plant response rating, Kochia: 90
[3]; 125 g ai/ha
  Plant response rating, Ragweed: 80
[3]; 500 g ai/ha
  Plant response rating, Ragweed: 100
[4]; 125 g ai/ha
  Plant response rating, Ryegrass, Italian: 20
[4]; 500 g ai/ha
  Plant response rating, Ryegrass, Italian: 70
[5]; 125 g ai/ha
  Plant response rating, Foxtail, Giant: 50
[5]; 500 g ai/ha
  Plant response rating, Foxtail, Giant: 100
[6]; 125 g ai/ha
  Plant response rating, Pigweed: 60
[6]; 500 g ai/ha
  Plant response rating, Pigweed: 100
[7]; Echinochloa crus-galli, post-emergence, 240 h, 125 g ai/ha, read-out: Plant response rating, Barnyardgrass
  pest or weed control at 125 g/ha: 50%
[7]; Echinochloa crus-galli, post-emergence, 240 h, 500 g ai/ha, read-out: Plant response rating, Barnyardgrass
  pest or weed control at 500 g/ha: 90%
[8]; Bassia scoparia, post-emergence, 240 h, 125 g ai/ha, read-out: Plant response rating, Kochia
  pest or weed control at 125 g/ha: 60%
[8]; Bassia scoparia, post-emergence, 240 h, 500 g ai/ha, read-out: Plant response rating, Kochia
  pest or weed control at 500 g/ha: 80%
[9]; Ambrosia artemisiifolia, post-emergence, 240 h, 125 g ai/ha, read-out: Plant response rating, Ragweed
  pest or weed control at 125 g/ha: 60%
[9]; Ambrosia artemisiifolia, post-emergence, 240 h, 500 g ai/ha, read-out: Plant response rating, Ragweed
  pest or weed control at 500 g/ha: 90%
[10]; Lolium multiflorum, post-emergence, 240 h, 125 g ai/ha, read-out: Plant response rating, Ryegrass, Italian
  pest or weed control at 125 g/ha: 0%
[10]; Lolium multiflorum, post-emergence, 240 h, 500 g ai/ha, read-out: Plant response rating, Ryegrass, Italian
  pest or weed control at 500 g/ha: 20%
[11]; Setaria faberi, post-emergence, 240 h, 125 g ai/ha, read-out: Plant response rating, Foxtail, Giant
  pest or weed control at 125 g/ha: 10%
[11]; Setaria faberi, post-emergence, 240 h, 500 g ai/ha, read-out: Plant response rating, Foxtail, Giant
  pest or weed control at 500 g/ha: 80%
[12]; Amaranthus retroflexus, post-emergence, 240 h, 125 g ai/ha, read-out: Plant response rating, Pigweed
  pest or weed control at 125 g/ha: 70%
[12]; Amaranthus retroflexus, post-emergence, 240 h, 500 g ai/ha, read-out: Plant response rating, Pigweed
  pest or weed control at 500 g/ha: 90%
[13]; Triticum aestivum, post-emergence, 240 h, 125 g ai/ha, read-out: Plant response rating, Wheat
  plant injury at 125 g/ha: 0%
[13]; Triticum aestivum, post-emergence, 240 h, 500 g ai/ha, read-out: Plant response rating, Wheat
  plant injury at 500 g/ha: 30%
[14]; Zea mays, post-emergence, 240 h, 125 g ai/ha
  Corn plant response rating (crop injury, 0 = no effect, 100 = complete kill) at 125 g/ha: 20%
[14]; Zea mays, post-emergence, 240 h, 500 g ai/ha
  Corn plant response rating (crop injury, 0 = no effect, 100 = complete kill) at 500 g/ha: 60%
[15]; Alopecurus myosuroides, post-emergence, 240 h, 125 g ai/ha, read-out: Plant response rating, Blackgrass
  pest or weed control at 125 g/ha: 0%
[15]; Alopecurus myosuroides, post-emergence, 240 h, 500 g ai/ha, read-out: Plant response rating, Blackgrass
  pest or weed control at 500 g/ha: 70%
[16]; Galium, post-emergence, 240 h, 125 g ai/ha, read-out: Plant response rating, Galium
  pest or weed control at 125 g/ha: 80%
[16]; Galium, post-emergence, 240 h, 500 g ai/ha, read-out: Plant response rating, Galium
  pest or weed control at 500 g/ha: 90%
[17]; Oryza sativa, 360 h, read-out: Plant response rating, Rice (0 to 100 scale, 0 is no effect, 100 is complete control)
  plant injury at 250 g/ha: 0%
[18]; Cyperus difformis, 360 h, read-out: Plant response rating, Sedge, Umbrella (0 to 100 scale, 0 is no effect, 100 is complete control)
  pest or weed control at 250 g/ha: 100%
[19]; Heteranthera limosa, 360 h, read-out: Plant response rating, Ducksalad (0 to 100 scale, 0 is no effect, 100 is complete control)
  pest or weed control at 250 g/ha: 0%
[20]; Echinochloa crus-galli, 360 h, read-out: Plant response rating, Barnyardgrass (0 to 100 scale, 0 is no effect, 100 is complete control)
  pest or weed control at 250 g/ha: 0%

## C[C@H](COc1ccccc1)Nc1ncc(C(F)(F)F)c(N)n1 [Compound 26]
[1]; 1000 g ai/ha
  Plant response rating, Barnyardgrass: 10
[2]; 1000 g ai/ha
  Plant response rating, Kochia: 0
[3]; 1000 g ai/ha
  Plant response rating, Ragweed: 100
[4]; 1000 g ai/ha
  Plant response rating, Ryegrass, Italian: 20
[5]; 1000 g ai/ha
  Plant response rating, Foxtail, Giant: 50
[6]; 1000 g ai/ha
  Plant response rating, Pigweed: 80
[7]; 1000 g ai/ha, 0 no effect, 100 complete control
  Plant response rating, Barnyardgrass: 0
[8]; 1000 g ai/ha
  Plant response rating, Kochia: 30
[9]; 1000 g ai/ha
  Plant response rating, Ragweed: 30
[10]; 1000 g ai/ha
  Plant response rating, Ryegrass, Italian: 10
[11]; 1000 g ai/ha
  Plant response rating, Foxtail, Giant: 0
[12]; 1000 g ai/ha
  Plant response rating, Pigweed: 50
[13]; 1000 g ai/ha
  Plant response rating, Wheat: 0
[14]; 1000 g ai/ha
  Plant response rating, Corn: 10
[15]; 1000 g ai/ha
  Plant response rating, Blackgrass: 0
[16]; 1000 g ai/ha
  Plant response rating, Galium: 60
[17]
  Plant response rating, Rice (0 to 100 scale, 0 is no effect, 100 is complete control): 0
[18]
  Plant response rating, Sedge, Umbrella (0 to 100 scale, 0 is no effect, 100 is complete control): 0
[19]
  Plant response rating, Ducksalad (0 to 100 scale, 0 is no effect, 100 is complete control): 0
[20]
  Plant response rating, Barnyardgrass (0 to 100 scale, 0 is no effect, 100 is complete control): 0
